Results published in US12213963B2, “Topical formulation of disease-modifying antirheumatic drug (DMARDs) for the treatment of rheumatoid arthritis, melanoma, squamous cell carcinoma, atopic dermatitis, and psoriasis” (priority 2022, dated 2025).

Assay: Solubility of leflunomide in oils, surfactants and co-surfactants
Assay type: physicochemical
Experimental: Solubility of leflunomide was investigated in various oils, surfactants and co-surfactants. The selected excipients showing good solubility were further screened using turbidimetric method to check the emulsification efficiency of the system. Water titration method was used to select combination of oil, surfactant and co surfactant which provided clear systems with water. Briefly, the drug was dissolved in the oil by vortexing. Surfactant and co-surfactants were added to the oil phase and further titrated with water to check the ease of emulsification. The globule size of these systems was determined. Capryol® 90 and Capmul® PG2L were selected as the oil component. The solubility of the drug was highest in these oils and adequate to achieve the required drug loading. […] Out of the various gelling agents screened, Carbopol® 974P was selected because it formed uniform gel with good texture and consistency.

drug solubility in co-surfactant PEG 400: higher drug solubility
drug solubility in surfactants Tween 20 and Kolliphor RH 40: high drug solubility
solubility of the drug in oils Capryol 90 and Capmul PG2L (compared with other oils screened): highest
Structure (SMILES): Cc1oncc1C(=O)Nc1ccc(C(F)(F)F)cc1 [leflunomide]
